Assay results taken from publication PMC9495826, “Membranolytic Mechanism of Amphiphilic Antimicrobial β-Stranded [KL]n Peptides” (Biomedicines, 2022).
Read-outs that look alike come from different tables or passages of the source. No end group written: not given here.

What was measured:
Assay type in all cases: cell-based
[1] = tested on: Bacillus subtilis (DSM 347)
Method: (§1) The antimicrobial activity of the KL peptides was determined with a MIC assay. Peptide activity was tested against Gram-negative Escherichia coli (DSM 1116) and Enterobacter helveticus (DSM 18390) and against Gram-positive Bacillus subtilis (DSM 347) and Staphylococcus xylosus (DSM 20287) as previously reported. Our standard MIC assay was modified to avoid unnecessary exposure of peptides to the phosphate-containing growth medium, which was previously found to affect the results due to phosphate-induced aggregation of peptides. Details can be found in the Supplementary Materials.
(§2) The activity of KL and LK peptides against bacteria was examined using a MIC assay. […] We have previously shown that KL peptides, especially the longer ones, aggregate vigorously in the presence of phosphate ions. […] Therefore, here we used a modified MIC assay that was developed in our previous study, as described in the Methods section. In this approach, a two-fold dilution series was first prepared with peptides dissolved in water, and only thereafter were the bacteria in the medium added so that the peptides were simultaneously exposed to bacteria and phosphate-containing medium.
(§3) 1.3 MIC (minimum inhibitory concentration) assay
(§4) Antimicrobial activity was measured by a minimal inhibitory concentration (MIC) assay, carried out with Gram-positive Bacillus subtilis (DSM 347) and Staphylococcus xylosus (DSM 20287) and with Gram-negative Escherichia coli (DSM 1116) and Enterobacter helvet-icus (DSM 18390). Bacteria were grown in Müller-Hinton medium at 37°C overnight. Bac-terial solutions with OD550 = 0.2 was further diluted 1:100 for Gram-positive and 1:1000 for Gram-negative bacteria to get a concentration of […] colony forming units (CFU)/mL. Mi-crotiter plates (96 wells of 100 μL) were filled peptide solution to obtain serial 2-fold dilu-tion series of peptides. 50 µL of pure water was first added to each well. To the first well 50 µL peptide solution was added, after mixing 50 µL of this was transferred to the second well and so on. After all plates were prepared, 50 µL bacterial solution in double-concen-tration MHM was added to the wells (except for the final row of each plate) to give a final concentration of 5 × 10^5 CFU/mL in the wells. Thus, peptides got in contact with phosphate and bacteria simultaneously. […]
(§5) gregate stronlgy in contact with the phosphate containing growth medium. The two final rows of each plate remained without peptide, so that the penultimate data point served as the positive co ntrol (no peptide), and the final one as the negative control (not inoculated). The plates were incubated at 37°C for 20 h, and cell viability was probed by addition of 20 µL 0.2 mg/mL resazurin and incubation at 37°C for 2 h. The MIC value was determined visually as the lowest peptide concentration inhibiting bacterial growth. […]
(§6) Unencapsulated dye was removed by gel filtration using spin columns filled with Sephacryl 100-HR (Sigma-Aldrich, Taufkirchen, Germany), and equilibrated with an elu-tion buffer (150 mM NaCl, 10 mM HEPES, pH 7.5), which balances the internal vesicle

[2] = tested on: Enterobacter helveticus (DSM 18390)
Method: as §1, §2, §3, §4, §5, §6

[3] = tested on: Escherichia coli (DSM 1116)
Method: as §1, §2, §3, §4, §5, §6

[4] = tested on: Staphylococcus xylosus (DSM 20287)
Method: as §1, §2, §3, §4, §5, §6

[5] = tested on: erythrocytes; test: Hemolysis assay
[6] = Gram-positive, modified MIC: 2-fold dilution series of peptide in water, then bacteria in double-concentration Müller-Hinton medium, 5 × 10^5 CFU/mL, 37°C 20 h, resazurin, visual
[7] = Gram-negative, modified MIC: 2-fold dilution series of peptide in water, then bacteria in double-concentration Müller-Hinton medium, 5 × 10^5 CFU/mL, 37°C 20 h, resazurin, visual

Substance | MIC B. subtilis ([1]; DSM 347, 20 h) [µg/mL] | MIC E. helveticus ([2]; DSM 18390, 20 h) [µg/mL] | MIC E. coli ([3]; DSM 1116, 20 h) [µg/mL] | MIC S. xylosus ([4]; DSM 20287, 20 h) [µg/mL] | Hemolysis HC50 (concentration of peptide giving 50% hemolysis) ([5]; 20 h) [µg/mL] | further results
KLKLKL-NH2 [KL6] | >256 | 128 | >256 | 256 | >256 | Hemolytic activity (in words) [5]: very low hemolytic activity
KLKLKLKL-NH2 [KL8] | 16 | 16 | 64 | 8 | >256 | Hemolytic activity (in words) [5]: very low hemolytic activity
KLKLKLKLK-NH2 [KL9] | 16 | 8 | 32 | 2 | >256 | Hemolysis ([5]; 20 h, 1 µg/mL): 5%; Hemolysis ([5]; 20 h, 2 µg/mL): 6%; Hemolysis ([5]; 20 h, 4 µg/mL): 8%; Hemolysis ([5]; 20 h, 8 µg/mL): 9%; Hemolysis ([5]; 20 h, 16 µg/mL): 9%; Hemolysis ([5]; 20 h, 32 µg/mL): 11%; Hemolysis ([5]; 20 h, 64 µg/mL): 14%; Hemolysis ([5]; 20 h, 128 µg/mL): 18%; Hemolysis ([5]; 20 h, 256 µg/mL): 20%; Hemolytic activity (in words) ([5]; erythrocytes, 37°C 30 min): very low hemolytic activity
KLKLKLKLKLK-NH2 [KL11] | 4 | 2 | 4 | 1 | >256 | Hemolytic activity (in words) [5]: very low hemolytic activity
KLKLKLKLKLKL-NH2 [KL12] | 2 | 2 | 2 | 2 | 8 | 
KLKLKLKLKLKLK-NH2 [KL13] | 2 | 1 | 2 | 1 | 9 | 
KLKLKLKLKLKLKLK-NH2 [KL15] | 4 | 2 | 8 | 2 | 2 | 
KLKLKLKLKLKLKLKL-NH2 [KL16] | 16 | 8 | 32 | 8 | 2 | 
KLKLKLKLKLKLKLKLKLKL-NH2 [KL20] | 32 | 32 | 32 | 16 | <1 | 
KLKLKLKLKLKLKLKLKLKLKL-NH2 [KL22] | 32 | 32 | 32 | 16 | <1 | 
KLKLKLKLKLKLKLKLKLKLKLKL-NH2 [KL24] | 32 | 16 | 32 | 8 | <1 | 
KLKLKLKLKLKLKLKLKLKLKLKLKL-NH2 [KL26] |  |  |  |  |  | MIC B. subtilis [1, 6]: 32 µg/mL; MIC E. helveticus [2, 7]: 16 µg/mL; MIC E. coli [3, 7]: 64 µg/mL; MIC S. xylosus [4, 6]: 16 µg/mL; Hemolysis HC50 (concentration of peptide giving 50% hemolysis) ([5]; interpolated from concentration-dependent curves, washed erythrocytes of healthy donors, 37°C 30 min, absorbance 540 nm, 100% = 1% Triton X-100): <1 µg/mL; Hemolysis ([5]; peptide 1 µg/mL, erythrocytes of healthy donors, 37°C 30 min, A540, relative to Triton-X 100%, average of three absorbance measurements): 52%; Hemolysis ([5]; peptide 2 µg/mL, erythrocytes of healthy donors, 37°C 30 min, A540, relative to Triton-X 100%, average of three absorbance measurements): 71%; Hemolysis ([5]; peptide 4 µg/mL, erythrocytes of healthy donors, 37°C 30 min, A540, relative to Triton-X 100%, average of three absorbance measurements): 72%; Hemolysis ([5]; peptide 8 µg/mL, erythrocytes of healthy donors, 37°C 30 min, A540, relative to Triton-X 100%, average of three absorbance measurements): 72%; Hemolysis ([5]; peptide 16 µg/mL, erythrocytes of healthy donors, 37°C 30 min, A540, relative to Triton-X 100%, average of three absorbance measurements): 56%; Hemolysis ([5]; peptide 32 µg/mL, erythrocytes of healthy donors, 37°C 30 min, A540, relative to Triton-X 100%, average of three absorbance measurements): 50%; Hemolysis ([5]; peptide 64 µg/mL, erythrocytes of healthy donors, 37°C 30 min, A540, relative to Triton-X 100%, average of three absorbance measurements): 47%; Hemolysis ([5]; peptide 128 µg/mL, erythrocytes of healthy donors, 37°C 30 min, A540, relative to Triton-X 100%, average of three absorbance measurements): 42%; Hemolysis ([5]; peptide 256 µg/mL, erythrocytes of healthy donors, 37°C 30 min, A540, relative to Triton-X 100%, average of three absorbance measurements): 39%
LKLKLKLKL-NH2 [LK9] | 4 | 4 | 16 | 2 | 145 | 
LKLKLKLKLK-NH2 [LK10] | 4 | 2 | 8 | 1 | 256 | 
LKLKLKLKLKL-NH2 [LK11] | 2 | 1 | 2 | 1 | 3 | 
LKLKLKLKLKLKL-NH2 [LK13] | 8 | 4 | 8 | 4 | 2 | 
LKLKLKLKLKLKLKL-NH2 [LK15] | 16 | 16 | 64 | 16 | <1 | 
